The record followed here is US12570641B2, “Solid forms of a CDK4 inhibitor” (Pfizer Inc., priority 2020, dated 2026).

This series in a line: Solid-state photostability (2x ICH light exposure). The class given is physicochemical. The method, then: Solid-state photostability of PF-07220060 monohydrate (Form 2) was evaluated after light exposure equivalent to 2× International Conference on Harmonisation (ICH) guidelines.
[1] abbreviates: UV/Fluor, 2x ICH light exposure.

With `CC(C)n1c(C(C)(C)O)nc2c(F)cc(-c3nc(N[C@@H]4CCOC[C@H]4O)ncc3Cl)cc21` [Form 2, 1,5-anhydro-3-({5-chloro-4-[4-fluoro-2-(2-hydroxypropan-2-yl)-1-(propan-2-yl)-1H-benzimidazol-6-yl]pyrimidin-2-yl}amino)-2,3-dideoxy-D-threo-pentitol monohydrate], the “solid form change by PXRD” value (2×CH condition) is recorded as “no form change”. Besides, the “change in appearance compared to the dark control sample” value (2×CH photostability sample) was “No significant change in appearance”. Further, for the setting “2×CH photostability samples”, the “growth of individual impurities” value is on record as no more than 0.2% and the total impurities is on record as no more than 2.0%. For the same compound, under “Dark control (wrapped in foil)”, the “% impurity RRT 0.74” value is listed as “NMT = 0.05%”, the “% impurity RRT 0.87” value worked out at 0.06%, the “% impurity RRT 1.02” value is on record as “NMT = 0.05%” and the “% impurity RRT 1.33” value was 0.08%. Besides, under setting [1], the “% impurity RRT 0.74” value came out at 0.11%, the “% impurity RRT 0.87” value is 0.06%, the “% impurity RRT 1.02” value was determined as 0.07% and the “% impurity RRT 1.33” value is 0.07%.
